Assay results published in paper PMC6130654 (Pharmaceutical Biology, 2016).

Key:
P-gp = P-gp expression levels in small intestine by western blot analysis; assay type: in vivo, ICR mice; conditions: mouse small intestine, intragastric, seven days; for P-gp expression compared with negative control: normalized to Na+-K+-ATPase
Experimental: Healthy male ICR mice (18-22 g of body weight) were purchased from SPF Animal Centre of […] Medical University ([…], China). […] The drugs were administrated intragastrically for seven consecutive days. Membrane proteins were harvested by […] Membrane and Plasma Protein Purification Kit ([…], Nanjing, China), and the protein concentrations were determined using KeyGEN BCA Protein Quantitation Assay kit ([…], Nanjing, China). An equal quantity of protein (48 μg) from membrane protein was resolved using 7.5% SDS-PAGE gel and subsequently transferred onto nitrocellulose membranes (Bio-Trace, Auckland, New Zealand). […] Antibodies were both purchased from Abcam (Cambridge, United Kingdom). The membranes were incubated with horseradish peroxidase-conjugated AffiniPure Goat Anti-Rabbit IgG (ZSGB-BIO, Beijing, China) for 1 h and signals were observed using SuperSignal West Pico (Thermo Scientific, Waltham, MA). Western blotting bands intensity was quantified by densitometric analysis using Image J version 2 × (NIH Image Software, […]).

[1] = test system: ABC transporter coupling ATPase; assay: ABC transporter-related ATPase activity assay on small intestine membrane proteins; assay type: in vivo, mice; conditions: mouse small intestine, intragastric, seven days, p < 0.05
Excerpt: Healthy male ICR mice (18-22 g of body weight) were purchased from SPF Animal Centre of […] Medical University ([…], China). […] The drugs were administrated intragastrically for seven consecutive days.

Plasmodium berghei = test system: Plasmodium berghei; parameters: method as in Wei et al. [2015]; conditions: ref Wei et al. [2015]; cited from earlier work
[2] = ref Wei et al. [2015]; cited from earlier work
rat CYP3A = conditions: ref Wei et al. [2015]; cited from earlier work
MDR1 mRNA = assay: MDR1 expression in small intestine determined by RT-qPCR; conditions: mouse small intestine; intragastric, seven days; verapamil 40 mg/kg, ART-verapamil 1:1, ART-CHR all ratios, CHR alone 80 mg/kg; p < 0.01
Experimental: All animals were housed in polycarbonate cages and acclimated in an environmentally controlled room (23 ± 2 °C, with adequate ventilation and a 12 h light/dark cycle) prior to use. All animals were provided with standard laboratory food and water before and during the experiments. […] The drugs were administrated intragastrically for seven consecutive days.
The mice were euthanized by cervical vertebra dislocation. Small intestines were harvested and cleaned using normal saline at least three times. Total RNA was extracted from the mouse small intestine using E.Z.N.A.^TM Total RNA Kit (OMEGA Bio-Tek, Norcross, GA), in accordance with the instructions of the manufacturer. RNA concentrations were measured with a microplate spectrophotometer (Bio-RAD, Hercules, CA) at 260 nm. RNA quality was evaluated using electrophoresis in 1% agarose gels. Total RNA (3 μg) was reverse transcribed into first-strand complementary DNA (cDNA) using Thermo Scientific RevertAid First Strand cDNA Synthesis Kit (Thermo Scientific, Waltham, MA). Each cDNA sample (1 μL) was amplified with 12 μL Thermo Scientific Maxima SYBR Green qPCR Master Mix (2×). ROX Solution provided (Thermo Scientific, Waltham, MA) and 1 μmol of each primer. […]

Compound	P-gp expression compared with negative control (P-gp)	ATPase activity versus the vehicle ([1]; ART 40 mg/kg, verapamil 40 mg/kg)	P-gp expression levels compared with ART alone (P-gp; ART-verapamil (1:1), ART-CHR (1:0.1, 1:1, 1:2, 1:4), CHR alone, p < 0.05 and p < 0.01)	ATPase activity compared with ART alone ([1]; ART-CHR 1:4 (40:160 mg/kg), CHR alone 80 mg/kg)	effect of CHR on anti-malarial efficacy of ART (Plasmodium berghei)	effect of CHR on rat plasma concentration of ART [2]	manner of inhibition of rat CYP3A (rat CYP3A)	MDR1 mRNA expression compared with ART alone (MDR1 mRNA)
C[C@@H]1CC[C@H]2[C@@H](C)C(=O)O[C@@H]3O[C@@]4(C)CC[C@@H]1[C@]32OO4 [ART, artemisinin, reference compound]	up-regulated	remarkably decreased						
COc1cc(-c2oc3cc(OC)c(OC)c(O)c3c(=O)c2OC)ccc1O [CHR, Chrysosplenetin]	No significant difference		significantly decreased	slight increase	significantly increased	significantly increased	uncompetitive	reversed to normal levels
